Source: US20220127247A1, “N-(PYRIDIN-2-YL)PYRIDINE-SULFONAMIDE DERIVATIVES AND THEIR USE IN THE TREATMENT OF DISEASE” (NOVARTIS AG, priority 2019, published 2022)

Key:
delF508-CFTR [1] = biological target: T1, delF508-CFTR (Homo sapiens, UniProt P13569, DEL508-508); experiment: Measurement of delF508-CFTR-HRP surface expression in CFBE41o- cells; type: cell-based; conditions: for EC50: HRP-tagged delF508-CFTR in CFBE41o- cells, 24 h with compound, luminescence, 10-point curve, top 10 μM; for Emax: efficacy relative to reference compound 3-(6-(1-(2,2-difluorobenzo[d][1,3]dioxol-5-yl)cyclopropane-1-carboxamido)-3-methylpyridin-2-yl)benzoic acid, CFBE41o- cells, 24 h, read-out: DelF508-CFTR-HRP Amax %
T1 construct: expressed in transfected cells
T1 sequence (P13569 with tags, fused parts or gaps DEL508-508): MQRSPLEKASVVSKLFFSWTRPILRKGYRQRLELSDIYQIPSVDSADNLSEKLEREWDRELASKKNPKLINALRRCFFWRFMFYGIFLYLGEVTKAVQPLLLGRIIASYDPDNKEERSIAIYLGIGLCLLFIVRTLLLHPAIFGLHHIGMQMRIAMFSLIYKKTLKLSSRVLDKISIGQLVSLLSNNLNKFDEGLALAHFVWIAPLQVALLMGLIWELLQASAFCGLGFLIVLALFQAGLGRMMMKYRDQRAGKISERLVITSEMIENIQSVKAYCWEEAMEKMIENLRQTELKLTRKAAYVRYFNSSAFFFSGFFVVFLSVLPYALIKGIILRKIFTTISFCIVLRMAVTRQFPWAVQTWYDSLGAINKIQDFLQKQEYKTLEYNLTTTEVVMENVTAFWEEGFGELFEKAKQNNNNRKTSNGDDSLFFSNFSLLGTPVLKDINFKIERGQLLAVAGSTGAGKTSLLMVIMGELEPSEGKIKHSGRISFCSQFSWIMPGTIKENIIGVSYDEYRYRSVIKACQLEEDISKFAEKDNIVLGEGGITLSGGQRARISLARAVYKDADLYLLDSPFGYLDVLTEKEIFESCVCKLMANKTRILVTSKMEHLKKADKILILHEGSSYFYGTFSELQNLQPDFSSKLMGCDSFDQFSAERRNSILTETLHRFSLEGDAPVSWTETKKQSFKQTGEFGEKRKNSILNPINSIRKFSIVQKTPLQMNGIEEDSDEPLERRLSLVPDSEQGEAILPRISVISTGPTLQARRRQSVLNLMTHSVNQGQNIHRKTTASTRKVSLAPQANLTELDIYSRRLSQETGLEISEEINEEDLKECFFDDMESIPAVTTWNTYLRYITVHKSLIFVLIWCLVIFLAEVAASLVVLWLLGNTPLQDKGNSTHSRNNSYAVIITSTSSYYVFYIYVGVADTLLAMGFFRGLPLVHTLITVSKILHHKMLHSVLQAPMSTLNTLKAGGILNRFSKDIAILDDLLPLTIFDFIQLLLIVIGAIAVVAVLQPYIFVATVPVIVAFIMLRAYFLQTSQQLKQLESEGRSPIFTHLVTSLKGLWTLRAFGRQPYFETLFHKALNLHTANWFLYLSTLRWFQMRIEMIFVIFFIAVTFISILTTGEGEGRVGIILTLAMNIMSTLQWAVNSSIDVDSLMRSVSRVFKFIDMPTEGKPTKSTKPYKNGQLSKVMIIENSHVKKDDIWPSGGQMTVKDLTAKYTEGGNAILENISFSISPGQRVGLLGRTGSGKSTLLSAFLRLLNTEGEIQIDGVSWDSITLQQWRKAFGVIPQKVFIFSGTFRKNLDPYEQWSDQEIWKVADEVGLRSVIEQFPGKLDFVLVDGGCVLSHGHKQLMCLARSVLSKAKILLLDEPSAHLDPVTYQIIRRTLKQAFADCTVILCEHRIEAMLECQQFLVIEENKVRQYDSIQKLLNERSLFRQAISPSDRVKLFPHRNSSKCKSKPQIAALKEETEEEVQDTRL
In short: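 CFBE41o- cells stably expressing delF508-CFTR with HRP in the fourth extracellular loop, induced with 500 ng/mL doxycycline for 48 h, then treated with compound (top 10 μM, 10-point 3-fold) for 24 h at 37° C. Surface HRP detected by luminescence with cell-impermeant substrate; EC50 from logistic fit of triplicates, normalized to lowest concentration.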

delF508-CFTR [2] = biological target: T1, delF508-CFTR; experiment: delF508-CFTR functional activity in primary human bronchial epithelial cells (HBECs), Multi-Transepithelial Clamp Circuit (MTECC-24) assay; type: cell-based; conditions: for EC50: primary human delF508-CFTR bronchial epithelial cells, 24 h with compound, equivalent short circuit current (Ieq), forskolin plus potentiator, mean of at least two replicates, read-out: MTECC24-CFHBEC EC50; for MTECC24-CFHBEC Amax %: test compound added 24 h before assay, with potentiator (S)-3-amino-6-methoxy-N-(3,3,3-trifluoro-2-hydroxy-2-methylpropyl)-5-(trifluoromethyl)picolinamide, relative to 2 μM 3-(6-(1-(2,2-difluorobenzo[d][1,3]dioxol-5-yl)cyclopropane-1-carboxamido)-3-methylpyridin-2-yl)benzoic acid + 0.5 μM N-(2,4-di-tert-butyl-5-hydroxyphenyl)-4-oxo-1,4-dihydroquinoline-3-carboxamide
Text: Measurement of delF508-CFTR Functional Activity in Primary Human Bronchial Epithelial Cells (HBECs) Using Multi-Transepithelial Clamp Circuit (MTECC-24) Assay
This assay measures the functional activity of the CFTR channel (Chloride ion transport) in patient derived primary human bronchial epithelial cells with forskolin activation and in the presence of the CFTR corrector/potentiator combination.
Primary human delF508-CFTR bronchial epithelial cells were and cultured according to previously established methods (Neuberger, T. et, al., Methods in Molecular Biology, 2011, 741, pp 39-54). Briefly, before thawing the HBEC cells, T25 flasks were coated with 2 mL of 3T3 conditioned media (MTI-GlobalStem, Cat #GSM9100) for at least 12 hours in 37° C. CO2 incubator. 1.7×10^5 cells were seeded into one T25 flask with 5 mL of HBE growth media (BEBM with supplements (Lonza, Cat #CC-3170) with 10 nM of retinoic acid (Sigma, Cat #R-2625) and 1% of PSA (Hyclone, Cat #SV30079.01). Media was changed every day till the cells were 100% confluent. Cells were seeded into T75 flasks (pre-coated with 5 mL of 3T3 conditioned media for more than 12 hrs) at 4.95×10^5 cells/T75 flask in 15 mL of HBE growth media. Flasks were fed everyday with fresh HBE growth media until the cells were confluent. 24-well transwell plates (Corning, Cat #3378) were coated with 3T3 conditioned media (70 μL on top of the filter, 350 μL to the bottom of the well) overnight in the 37° C. CO2 incubator. Cells were seeded in the pre-coated 24-well transwell plates at 1.7×10^5 cell/well with 700 μL of growth media at the bottom of the well and 200 μL of growth media at the top of the filter. After 24 hrs, cells were switched into HBE differentiation media ((DMEM/F12 (Gibco, Cat #11330-032) supplement with 2% Ultroser G (Pall, Cat #15950-017), 2% of Fetal Clone II (Hyclone, Cat #SH30066.03), 0.25% Bovine Brain Extract (Lonza, Cat #CC-4098), 1% of PSA, 2.5 μg/mL of Insulin (Sigma, Cat #19278), 20 nM of Hydrocortisone (Sigma, Cat #H0888), 500 nM of Triiodothyronine (Sigma, Cat #T6397), 2.5 μg/mL of Transferrin (Sigma, Cat #T8158), 250 nM of Ethanolamine (Sigma, Cat #E0135), 1.5 μM of Epinephrine (Sigma, Cat #E4250), 250 nM of Phosphoethanolamine (Sigma, Cat #P0503), 10 nM of retinoic acid)) with 200 μL on top of the filter (apical side) and 700 μL at the bottom of the well (basolateral side). Cells were fed every other day with the differentiation media. After 4 days, cells were exposed to air/liquid interface. Then cells were fed every other day for 4 weeks before fully differentiated.
Cells were washed with 3 mM DTT in PBS at 70 ul/well for 30 min at 37° C. 6 days before the assay. 3 days before the assay, cells were washed again with PBS at 70 ul/well for 30 min at 37° C. Then cells were treated with compound for 24 hrs before the assay.
Following 24 hr treatment with compound, cells were transferred into plates containing 750 ul of assay media on basolateral side and 250 ul on apical side (Assay medium: F-12 Coon's modified, 20 mM HEPES pH7.4 with TRIS Base, No FCS or bicarbonate). The plates wee then transferred to the heated plate compartments (basolateral buffer temperature ˜36.5° C. on the heating block) of the TECC24 system for 45 mins prior to measurements.
Modulators were added sequentially as follows while the TECC24 instrument recorded the equivalent short circuit current (Ieq):
Prior to dilution into assay medium the stocks were as follows: • Benzamil stock: 10 mM in DMSO • Forskolin Stock: 50 mM in DMSO • N-(2,4-di-tert-butyl-5-hydroxyphenyl)-1,4-dihydro-4-oxoquinoline-3-carboxamide: 50 mM in DMSO • (S)-3-amino-6-methoxy-N-(3,3,3-trifluoro-2-hydroxy-2-methylpropyl)-5-(trifluoromethyl)picolinamide: 50 mM stock 100% DMSO • Bumetanide stock: 20 mM in EtOH
The data was normalized using the median signal from wells treated with 0.1% DMSO as a baseline. Curve fitting and EC50 calculations were performed using the following equation: […]

Compound	EC50 (delF508-CFTR [1]) [nM]	EC50 (delF508-CFTR [2]) [nM]	MTECC24-CFHBEC Amax % (delF508-CFTR [2]) [%]	Emax (delF508-CFTR [1]) [%]
Cc1ccccc1-c1nc(NS(=O)(=O)c2cccc(N(CCC(=O)O)CC(C)C)n2)ccc1C(F)(F)F [Compound 128, 3-(isobutyl(6-(N-(6-(o-tolyl)-5-(trifluoromethyl)pyridin-2-yl)sulfamoyl)pyridin-2-yl)amino)propanoic Acid]	1110	31	277	
Cc1ccccc1-c1nc(NS(=O)(=O)c2cccc(N(CCCC(=O)O)CC(C)C)n2)ccc1C(F)(F)F [Compound 129, 4-(isobutyl(6-(N-(6-(o-tolyl)-5-(trifluoromethyl)pyridin-2-yl)sulfamoyl)pyridin-2-yl)amino)butanoic Acid]	1080	154	83	
CCCN(CCCC(=O)O)c1cccc(S(=O)(=O)Nc2ccc(C(F)(F)F)c(-c3cc(F)ccc3C)n2)n1 [Compound 131, 4-((6-(N-(6-(5-fluoro-2-methylphenyl)-5-(trifluoromethyl)pyridin-2-yl)sulfamoyl)pyridin-2-yl)(propyl)amino)butanoic Acid]	1380	327	95	
CCCN(CCCC(=O)O)c1cccc(S(=O)(=O)Nc2ccc(C(F)(F)F)c(-c3ccccc3C)n2)n1 [Compound 132, 4-(propyl(6-(N-(6-(o-tolyl)-5-(trifluoromethyl)pyridin-2-yl)sulfamoyl)pyridin-2-yl)amino)butanoic Acid]	1580	95	232	
Cc1ccccc1-c1nc(NS(=O)(=O)c2cccc(N(C)CC3(C(=O)O)CCOCC3)n2)ccc1C(F)(F)F [Compound 133, 4-((methyl(6-(N-(6-(o-tolyl)-5-(trifluoromethyl)pyridin-2-yl)sulfamoyl)pyridin-2-yl)amino)methyl)tetrahydro-2H-pyran-4-carboxylic Acid]	1920	901	108	547
Cc1ccccc1-c1nc(NS(=O)(=O)c2cccc(N(CCCC(=O)O)CCC(F)(F)F)n2)ccc1C(F)(F)F [Compound 134, 4-((6-(N-(6-(o-tolyl)-5-(trifluoromethyl)pyridin-2-yl)sulfamoyl)pyridin-2-yl)(3,3,3-trifluoropropyl)amino)butanoic Acid]	1370	114	189	
Cc1ccc(F)cc1-c1nc(NS(=O)(=O)c2cccc(N(CCC(=O)O)C(C)C)n2)ccc1C(F)(F)F [Compound 135, 3-((6-(N-(6-(5-fluoro-2-methylphenyl)-5-(trifluoromethyl)pyridin-2-yl)sulfamoyl)pyridin-2-yl)(isopropyl)amino)propanoic Acid]	1570	65	292	
CCCN(CCC(=O)O)c1cccc(S(=O)(=O)Nc2ccc(C(F)(F)F)c(-c3ccccc3C)n2)n1 [Compound 148, 3-(propyl(6-(N-(6-(o-tolyl)-5-(trifluoromethyl)pyridin-2-yl)sulfamoyl)pyridin-2-yl)amino)propanoic Acid]	1450	179	247	
CCCN(CCC(=O)O)c1cccc(S(=O)(=O)Nc2ccc(C(F)(F)F)c(-c3cc(F)ccc3C)n2)n1 [Compound 149, 3-((6-(N-(6-(5-fluoro-2-methylphenyl)-5-(trifluoromethyl)pyridin-2-yl)sulfamoyl)pyridin-2-yl)(propyl)amino)propanoic Acid]	1490	88	133	
CCCN(CCCC(=O)O)c1cccc(S(=O)(=O)Nc2ccc(Cl)c(-c3ccccc3C)n2)n1 [Compound 156, 4-((6-(N-(5-chloro-6-(o-tolyl)pyridin-2-yl)sulfamoyl)pyridin-2-yl)(propyl)amino)butanoic Acid]	920	230	158	549
CCCN(CCCC(=O)O)c1cccc(S(=O)(=O)Nc2ccc(Cl)c(-c3c(C)cccc3C)n2)n1 [Compound 157, 4-((6-(N-(5-chloro-6-(2,6-dimethylphenyl)pyridin-2-yl)sulfamoyl)pyridin-2-yl)(propyl)amino)butanoic Acid]	770	586	59	589
